Here are results for four molecules from US4412996A, “Pyridoxine derivatives and related pharmaceutical compositions” (Crinos Farmacologica Spa, priority 1980, dated 1983).

Data set [1] can be described thus: Acute toxicity in the rat (method of Litchfield and Wilcoxon). The note with it: in vivo, po. An excerpt:
(§1) In the following resuming table the results obtained for the esters of the Indomethacin are reported. In the determination of the acute toxicity, carried out in the rat, the method of Litchfield and Wilcoxon (J. Pharmacol. Exp. Therm., 96, 99, 1949) has been adopted.

Data set [2] is described as follows: Anti-inflammatory activity, carrageenin induced oedema (Winter et al.). The class given is in vivo, rat. The conditions noted are these: rat, in vivo; carrageenin 3 h; read-out: Therapeutical index LD50/ED50 (carrageenin 3h). From the text:
(§2) As regards the anti-inflammatory activity, the ED50 in the normal rat has been evaluated according to Winter et al. (Proc. Soc. Exp. Biol. Med., 111, 544, 1962).

Data set [3] concerns rat. The data set is described as above. The class given is in vivo. The conditions noted are these: 3 h; for ED50: Rattus norvegicus, po, read-out: Carrageenin induced oedema (3 h) ED50; for Carrageenin induced oedema (3 h) ED50: 180 min.
Source text: as §2

Data set [4] is described as follows: Analgesic activity (method of Randall and Selitto). The class given is in vivo. The conditions noted are these: for selectivity ratio: in vivo, Randall-Selitto 3 h, read-out: Therapeutical index LD50/ED50 (Randall-Selitto 3h); for ED50: po, read-out: Randall-Selitto (3 h) ED50. An excerpt:
As regards the analgesic activity, the evaluation has been carried out according to the method of Randall and Selitto (Arch. Ing. Pharmacodyn., 111, 409, […]).

Data set [5] is described as follows: Ulcerogenic activity / gastric tolerability, UD50 in fasted rats. The class given is in vivo, rat. The note with it: rat, in vivo, po. An excerpt:
(§3) The UD50 has been also calculated according to the aforesaid method of Litchfield and Wilcoxon.

In data set [6] the test system is rat. The data set can be described thus: Acute toxicity in the rat (method of Litchfield and Wilcoxon). The note with it: in vivo, po.
Source text: as §1

The test system of data set [7] is rat. Put plainly: Ulcerogenic activity / gastric tolerability, UD50 in fasted rats. The format is in vivo. The conditions noted are these: for Gastric tolerability UD50 fasted 18 h / Gastric tolerability UD50 fasted 48 h: rat, in vivo, po.
Source text: as §3

A short description of data set [8]: Solubility of the product. The class given is physicochemical.
The mark [9] stands for this setting: UD50 18 h, Randall-Selitto 3 h, read-out: Tolerability index UD50 (18h)/ED50 (Randall-Selitto 3 H).
The mark [10] stands for this setting: UD50 18 h, carrageenin 3 h, read-out: Tolerability index UD50 (18 h)/ED50 (carrageenin 3 h).
[11] abbreviates: UD50 48 h, Randall-Selitto 3 h, read-out: Tolerability index UD50 (48 h)/ED50 (Randall-Selitto 3 h).
[12] abbreviates: UD50 48 h, carrageenin 3 h, read-out: Tolerability index UD50 (48 h)/ED50 (carrageenin 3 h).

The structures appear in SMILES notation. Where a name gives a salt, the structure may show the parent alone. Read-outs that look alike come from different tables or passages of the source. Some results are limits rather than exact numbers.

In turn, `COc1ccc2c(c1)c(CC(=O)O)c(C)n2C(=O)c1ccc(Cl)cc1` [Indomethacin, 1-(p-chlorobenzoyl)-2-methyl-5-methoxy-indol-3-acetic acid, reference compound] showed an LD50 in data set [1] (per os (head: mg/kg/os), * = insufficient sample) of 21 mg/kg. The selectivity ratio in data set [2] was 4.77; in data set [4], 15.8; in data set [5] (setting [9]), 5.18; in data set [5] (setting [10]), 1.57; in data set [5] (setting [11]), 2.59; in data set [5] (setting [12]), 0.78. In addition, the ED50 was determined as 4.4 mg/kg in data set [3] and 1.33 mg/kg in data set [4] (3 h). Further, in data set [5] (fasted rats, per os, 18 h, read-out: Gastric tolerability UD50 fasted 18 h), the TD50 at 18 h worked out at 6.9 mg/kg. Besides, the TD50 at 48 h in data set [5] (fasted rats, per os, 48 h, read-out: Gastric tolerability UD50 fasted 48 h) worked out at 3.45 mg/kg.

`COc1ccc2c(c1)c(CC(=O)OCc1cnc(C)c3c1COC(C)(C)O3)c(C)n2C(=O)c1ccc(Cl)cc1` [compound ex. 1(b), Hydrochloride of the (3,4-isopropylidene)-pyridoxine ester of 1-(p-chlorobenzoyl)-2-methyl-5-methoxy-indol-3-acetic acid]: in data set [6], the “LD50, rat” value worked out at 85 mg/kg. The selectivity ratio in data set [2] came out at 8.39. Moreover, the “Carrageenin induced oedema (3 h) ED50” value in data set [3] (normal rat, per os) was 10.13 mg/kg/os. The “Randall-Selitto (3 h) ED50” value in data set [4] (3 h, per os, 180 min) is 2.66 mg/kg/os. For the same molecule, in data set [4], the selectivity ratio was 31.9. In addition, the “Tolerability index UD50 (18h)/ED50 (Randall-Selitto 3 H)” value in data set [7] (UD50 18 h) is 12.59. Besides, the “Tolerability index UD50 (18 h)/ED50 (carrageenin 3 h)” value in data set [7] (UD50 18 h, carrageenin 3 h) was 3.30. In addition, in data set [7] (UD50 48 h), the “Tolerability index UD50 (48 h)/ED50 (Randall-Selitto 3 h)” value is recorded as 8.45. Moreover, the “Tolerability index UD50 (48 h)/ED50 (carrageenin 3 h)” value in data set [7] (UD50 48 h, carrageenin 3 h) was found to be 2.22. Further, in data set [7], the “Gastric tolerability UD50 fasted 18 h” value worked out at 33.50 and the “Gastric tolerability UD50 fasted 48 h” value was found to be 22.50. For the same molecule, the “solubility in cold chloroform” value in data set [8] (cold chloroform) is “soluble”. In addition, the “solubility in hot N,N'-dimethylformamide” value in data set [8] (hot N,N'-dimethylformamide) is “poorly soluble”. For the same molecule, in data set [8] (hot ethanol), the “solubility in hot ethanol” value is on record as “soluble”. In addition, in data set [8] (water), the solubility in water result is given as “insoluble”.

Regarding `COc1ccc2c(c1)c(CC(=O)OCc1cnc(C)c3c1COC(C)(C)O3)c(C)n2C(=O)c1ccc(Cl)cc1` [compound ex. 1(c), (3,4-isopropylidene)-pyridoxine ester of 1-(p-chlorobenzoyl)-2-methyl-5-methoxy-indol-3-acetic acid], the “LD50, rat” value in data set [6] is over 200 mg/kg. Moreover, the “Carrageenin induced oedema (3 h) ED50” value in data set [3] (normal rat, per os) was 36.83 mg/kg/os. In data set [4] (3 h, per os), the ED50 came to 2.7 mg/kg. Moreover, in data set [5] (setting [10]), the selectivity ratio came out at 5.75. In data set [5] (setting [12]), the selectivity ratio came out at 3.8. Further, the “Tolerability index UD50 (18h)/ED50 (Randall-Selitto 3 H)” value in data set [7] (UD50 18 h) stood at 78.51. Also, the “Tolerability index UD50 (48 h)/ED50 (Randall-Selitto 3 h)” value in data set [7] (UD50 48 h) was 51.85. Also, in data set [7], the “Gastric tolerability UD50 fasted 18 h” value is recorded as 212.00 and the “Gastric tolerability UD50 fasted 48 h” value is 140.00.

In the case of `COc1ccc2c(c1)c(CC(=O)OCc1cnc(C)c(O)c1CO)c(C)n2C(=O)c1ccc(Cl)cc1` [compound ex. 2, Pyridoxine ester of 1-(p-chlorobenzoyl)-2-methyl-5-methoxy-indol-3-acetic acid], the mortality in data set [1] (819 mg/kg, read-out: LD50, rat line: percent at 819 mg/kg) stood at 62.5%. The ED50 in data set [3] (normal rat, per os) came to 76 mg/kg; in data set [4] (3 h, per os), 3.37 mg/kg. Further, the TD50 at 18 h in data set [5] (Gastric tolerability UD50 fasted 18 h) worked out at 530 mg/kg. The TD50 at 48 h in data set [5] (Gastric tolerability UD50 fasted 48 h) is 285 mg/kg. For the same molecule, the selectivity ratio in data set [5] (setting [9]) stood at 157; in data set [5] (setting [10]) it was 6.97; in data set [5] (setting [11]) it was 84.6; in data set [5] (setting [12]) it was 3.75.
